For experiment [1], the system named is voltage-dependent Ca2+ channels (isolated rat ileum). As to the kind of experiment: Calcium antagonism: relaxation of K+. Conditions: K+ (80 mM)-induced contractions of rat ileum; mean ± SD, three independent experiments.
Experiment [2] relates to PMA-differentiated THP-1 cells. As to the kind of experiment: PMA-differentiated THP-1 cell viability assay. It is filed as cell-based. Conditions: Homo sapiens, THP-1, 24 h.
The target in experiment [3] is ACE2:SARS-CoV-2 Spike (RBD) (Homo sapiens, UniProt Q9BYF1). Description: biochemical. In kind it is binding.
Experiment [4] deals with Male Wistar albino rats. In kind it is in vivo, rat. Conditions: mean arterial BP compared to the control group.
Experiment [5] has as its system CRP production in LPS-stimulated THP-1 cells. Description: CRP production by LPS-stimulated PMA-differentiated THP-1 cells. Conditions: compared to LPS (positive control); for Effect on CRP level (in words): compound at 1/4 IC50, LPS 0.5 μg/mL. It is filed as cell-based, human.
Experiment [6] relates to IL-6 production in LPS-stimulated THP-1 cells. As to the kind of experiment: IL-6 production by LPS-stimulated PMA-differentiated THP-1 cells. It is filed as cell-based, human. Conditions: compared to LPS (positive control); for Reduction of IL-6 level: compound at 1/4 IC50, added 2 h prior to LPS 0.5 μg/mL, 24 h.

Values after ≈ are worked out from the molar mass of the structure shown. Values joined by “and” are separate entries in the source; they are usually repeats but may differ in a detail not shown here. Identical values can stand only once. Like-named read-outs stand apart in the source and are kept apart here.

Sequence of ACE2:SARS-CoV-2 Spike (RBD) (Q9BYF1 18-740): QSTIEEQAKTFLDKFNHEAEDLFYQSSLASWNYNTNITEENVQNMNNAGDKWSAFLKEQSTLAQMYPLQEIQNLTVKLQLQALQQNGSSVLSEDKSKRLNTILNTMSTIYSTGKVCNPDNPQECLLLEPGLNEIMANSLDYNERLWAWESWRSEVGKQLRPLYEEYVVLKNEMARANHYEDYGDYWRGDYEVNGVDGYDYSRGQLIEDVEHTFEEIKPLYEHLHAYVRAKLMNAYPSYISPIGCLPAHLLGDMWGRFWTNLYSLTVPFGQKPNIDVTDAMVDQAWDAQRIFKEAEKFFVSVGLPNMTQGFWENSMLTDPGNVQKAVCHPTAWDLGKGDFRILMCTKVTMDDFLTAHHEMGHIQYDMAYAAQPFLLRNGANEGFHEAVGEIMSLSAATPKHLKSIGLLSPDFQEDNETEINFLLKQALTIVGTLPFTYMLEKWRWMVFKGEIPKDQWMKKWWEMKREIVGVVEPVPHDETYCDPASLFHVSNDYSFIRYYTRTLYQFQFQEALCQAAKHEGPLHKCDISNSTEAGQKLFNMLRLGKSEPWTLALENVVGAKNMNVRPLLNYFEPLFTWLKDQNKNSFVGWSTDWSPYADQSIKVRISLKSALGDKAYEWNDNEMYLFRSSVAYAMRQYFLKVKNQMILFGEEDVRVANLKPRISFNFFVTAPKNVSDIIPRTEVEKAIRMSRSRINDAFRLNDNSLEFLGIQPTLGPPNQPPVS

As usually defined, the IC50 is the concentration at which inhibition is half-maximal. Consider `CCOC(=O)C1=C(C)NC(=S)NC1c1ccccc1C#N` (stereo not shown) [Compound 4a, Ethyl-4-(2-cyanophenyl)-6-methyl-2-thioxo-1,2,3,4-tetrahydropyrimidine-5-carboxylate], for which the IC50 in experiment [1] is 23.07 ± 1.53 µg/mL (≈ 76.6 µM); in experiment [2] it was 1550 ± 134 µg/mL; in experiment [2] (read-out: IC50 µM) it was 533 µM; in experiment [3] it was 8.5 ± 0.92 nM.
Regarding `CCOC(=O)C1=C(C)NC(=S)NC1c1ccccc1Cl` (stereo not shown) [Compound 4b, Ethyl-4-(2-chlorophenyl)-6-methyl-2-thioxo-1,2,3,4-tetrahydropyrimidine-5-carboxylate], the IC50 in experiment [1] was 24.69 ± 2.35 µg/mL (≈ 79.4 µM); in experiment [2], 698 ± 65.6 µg/mL; in experiment [2] (read-out: IC50 µM), 231 µM; in experiment [3], ~12.5 nM and 12.5 nM.
Regarding `CCOC(=O)C1=C(C)NC(=S)NC1c1ccccc1Br` (stereo not shown) [Compound 4c, Ethyl-4-(2-bromophenyl)-6-methyl-2-thioxo-1,2,3,4-tetrahydropyrimidine-5-carboxylate], the “% reduction in BP” value in experiment [4] is reported as “about 21%”. Besides, the IC50 amounted to 23.62 ± 2.33 µg/mL (≈ 66.5 µM) in experiment [1] and 23 ± 1 nM in experiment [3].
Regarding `CC1=C(C(=O)O)C(c2ccccc2C#N)NC(=S)N1` (stereo not shown) [Compound 5a, 4-(2-cyanophenyl)-6-methyl-2-thioxo-1,2,3,4-tetrahydropyrimidine-5-carboxylic acid], in experiment [5], the “Effect on CRP level (in words)” value was “moderate decrease”. Also, the IC50 in experiment [1] was 24.37 ± 1.45 µg/mL (≈ 89.2 µM); in experiment [2] it was 496 ± 38.7 µg/mL; in experiment [2] (read-out: IC50 µM), 118 µM; in experiment [3] it was 9.8 ± 1.06 nM. For the same compound, the “Reduction of IL-6 level” value in experiment [6] is reported as “about 56%”.
For `CC1=C(C(=O)O)C(c2ccccc2Cl)NC(=S)N1` (stereo not shown) [Compound 5b, 4-(2-chlorophenyl)-6-Methyl-2-thioxo-1,2,3,4-tetrahydropyrimidine-5-carboxylic acid], the concentration for half-maximal inhibition (IC50) is 25.25 ± 1.39 µg/mL (≈ 89.3 µM) in experiment [1]; 967 ± 79.2 µg/mL in experiment [2]; 342 µM in experiment [2] (read-out: IC50 µM); ~12.5 nM and 12.5 nM in experiment [3].
As for `CC1=C(C(=O)Cl)C(c2ccccc2C#N)NC(=S)N1` (stereo not shown) [Compound 6a, 6-Methyl-4-(2-cyanophenyl)-2-thioxo-1,2,3,4-tetrahydropyrimidine-5-carbonyl chloride], the values for the IC50 in experiment [1] and in experiment [3] were 26.84 ± 1.51 µg/mL and 17.5 ± 1.31 nM, respectively.
For `CC1=C(C(=O)Cl)C(c2ccccc2Cl)NC(=S)N1` (stereo not shown) [Compound 6b, 6-Methyl-4-(2-chlorophenyl)-2-thioxo-1,2,3,4-tetrahydropyrimidine-5-carbonyl chloride], in that order: 30.78 ± 2.52 µg/mL and 23.7 ± 1.35 nM.
Regarding `CC1=C(C(=O)Cl)C(c2ccccc2Br)NC(=S)N1` (stereo not shown) [Compound 6c, 6-Methyl-4-(2-bromophenyl)-2-thioxo-1,2,3,4-tetrahydropyrimidine-5-carbonyl chloride], the IC50 in experiment [1] was 29.73 ± 2.44 µg/mL; in experiment [3], 16.5 ± 1.08 nM.
`CC1=C(C(=O)Nc2ccccc2)C(c2ccccc2C#N)NC(=S)N1` (stereo not shown) [Compound 7a, 4-(2-cyanophenyl)-6-methyl-N-phenyl-2-thioxo-1,2,3,4-tetrahydropyrimidine-5-carboxamide]: in experiment [4], the “% reduction in BP” value is reported as “up to 29%”. Further, the IC50 in experiment [1] is 19.65 ± 1.60 µg/mL (≈ 56.4 µM); in experiment [2], 434 ± 32.9 µg/mL; in experiment [2] (read-out: IC50 µM) it was 123 µM; in experiment [3], 11.6 ± 0.94 nM. The “Effect on IL-6 level (in words)” value in experiment [6] (compound at 1/4 IC50, LPS 0.5 μg/mL) is “lowest effect”.
With `CC1=C(C(=O)Nc2ccc(C)cc2)C(c2ccccc2C#N)NC(=S)N1` (stereo not shown) [Compound 7b, 4-(2-cyanophenyl)-6-methyl-N-(4-methylphenyl)-2-thioxo-1,2,3,4-tetrahydropyrimidine-5-carboxamide], in experiment [5], the “Effect on CRP level (in words)” value was “moderate decrease”. For the same compound, the IC50 in experiment [1] is 22.81 ± 2.46 µg/mL (≈ 62.9 µM); in experiment [2], 222 ± 10.1 µg/mL; in experiment [2] (read-out: IC50 µM), 61 µM; in experiment [3] it was 10.8 ± 0.75 nM. For the same compound, the “Reduction of IL-6 level” value in experiment [6] is 47%.
`CC1=C(C(=O)Nc2ccc(F)cc2)C(c2ccccc2C#N)NC(=S)N1` (stereo not shown) [Compound 7c, 4-(2-cyanophenyl)-6-methyl-N-(4–fluorophenyl)-2-thioxo-1,2,3,4-tetrahydropyrimidine-5-carboxamide]: the IC50 in experiment [1] worked out at 22.85 ± 1.11 µg/mL (≈ 62.4 µM); in experiment [3], 20.1 ± 1.1 nM.
With `CC1=C(C(=O)Nc2ccccc2)C(c2ccccc2Cl)NC(=S)N1` (stereo not shown) [Compound 8a, 4-(2-chlorophenyl)-6-methyl-N-phenyl-2-thioxo-1,2,3,4-tetrahydropyrimidine-5-carboxamide], in experiment [4], the “% reduction in BP” value was “up to 29%”. For the same compound, the IC50 in experiment [1] is 20.23 ± 1.79 µg/mL (≈ 56.5 µM); in experiment [2], 464 ± 29.7 µg/mL; in experiment [2] (read-out: IC50 µM) it was 125 µM; in experiment [3] it was 10.6 ± 0.61 nM.
Take `CC1=C(C(=O)Nc2ccc(C)cc2)C(c2ccccc2Cl)NC(=S)N1` (stereo not shown) [Compound 8b, 4-(2-chlorophenyl)-6-methyl-N-(4-methylphenyl)-2-thioxo-1,2,3,4-tetrahydropyrimidine-5-carboxamide]: the figures for the IC50 in experiment [1] and in experiment [3] were 22.91 ± 2.59 µg/mL (≈ 61.6 µM) and 19.2 ± 1.11 nM, respectively.
In the case of `CC1=C(C(=O)Nc2ccccc2)C(c2ccccc2Br)NC(=S)N1` (stereo not shown) [Compound 9a, 4-(2-bromophenyl)-6-methyl-N-phenyl-2-thioxo-1,2,3,4-tetrahydropyrimidine-5-carboxamide], the “% reduction in BP” value in experiment [4] was determined as 27%. Also, in experiment [5] (compound at 1/4 IC50, added 2 h prior to LPS 0.5 μg/mL, 24 h), the “Decrease in the level of CRP” value is on record as “about 95%”. Also, the IC50 was 21.45 ± 2.55 µg/mL (≈ 53.3 µM) in experiment [1], 484.9 ± 3.24 µg/mL in experiment [2], 116 µM in experiment [2] (read-out: IC50 µM) and 13.7 ± 1.37 nM in experiment [3]. Besides, the “Reduction of IL-6 level” value in experiment [6] was approximately 79%.

The record behind these values is article PMC8403975 (Bioorganic Chemistry, 2021).
